{"source": "patent US20160320384A1", "about": "“METHODS FOR ASSAYING IMMUNOLOGICAL COMPETENCE” (YEDA RESEARCH AND DEVELOPMENT CO. LTD., priority 2013, published 2016)", "key": {"[1]": {"system": "serum IgG antibodies", "test": "Serum IgG antibody binding to oligonucleotides on antigen microarray", "design": "species or system human", "conditions": "for IgG reactivities compared to T17: individual subjects (FIGS. 5A-B); for IgG binding compared to G17: individual subjects (FIG. 4)", "experimental": "(§1) In a follow-up study, sera samples obtained from 23 healthy subjects, 24 SSc patients, and 49 SLE patients were tested using an antigen microarray that included 58 single-stranded oligonucleotides. Overall, 60 SLE patients, 26 SSc patients, 18 PV patients, and 31 healthy subjects were tested.\n(§2) In a follow-up study, 58 different oligonucleotides, as well as double and single stranded DNA, in various lengths (104 different preparations overall), were spotted on epoxy-activated glass substrates (ArrayIt SuperEpoxi microarray substrate slides, Sunnyvale, Calif.). […] The microarrays were then blocked for 1 hour at 37° with 1% bovine serum albumin. Test serum samples in 1% Bovine Serum Albumin (BSA) blocking buffer (1:10 dilution) were incubated under a coverslip for 1 hour at 37°. The arrays were then washed and incubated for 1 hour at 37° with a 1:500 dilution of two detection antibodies, mixed together: a goat anti-human IgG Cy3-conjugated antibody, and a goat anti-human IgM Cy5-conjugated antibody (both purchased from Jackson ImmunoResearch Laboratories Inc., West Grove, Pa.). Image acquisition was performed by laser (Agilent Technologies, Santa Clara, Calif.) and the results were analyzed using Quantarray software (Packard BioChip Technologies, Billerica, Mass.). The quantitative range of signal intensity of binding to each antigen spot was 0-65,000; this range of detection made it possible to obtain reliable data at a 1:10 dilution of test serum samples.\n(§3) Alternatively, oligonucleotides and double and single stranded DNA in various chain lengths were spotted on epoxyhexyltriethoxysilane (EHTES) activated slides. The microarrays were then blocked for 1 hour at room temperature with 1% casein. Test serum samples in 1% casein blocking buffer (1:20 dilution) were incubated under a coverslip for 1 hour at 37°. The arrays were then washed and incubated for 1 hour at 37° with a 1:500 dilution of two detection antibodies, mixed together: a goat anti-human IgG Cy3-conjugated antibody, and a goat anti-human IgM AF647-conjugated antibody (both purchased from Jackson ImmunoResearch Laboratories Inc., West Grove, Pa.). Image acquisition was performed by laser at two wavelengths 530 nm and 630 nm (Agilent Technologies, Santa Clara, Calif.) and the results were analyzed using Genepix Pro 7.0 software with default settings. The quantitative range of signal intensity of binding to each antigen spot was 0-65,000; this range of detection made it possible to obtain reliable data at a 1:20 dilution of test samples.\n(§4) Each spot's intensity is represented by its pixels' mean after subtraction of its local background median, followed by Log 2 transform. Negative spots (following background subtraction) are imputed with background-like intensity. The foreground and background intensities of multiple spots of each antigen were averaged, and the difference between the foreground and the background was calculated."}, "[2]": {"system": "serum IgM antibodies", "test": "Serum IgM antibody binding to oligonucleotides on antigen microarray", "design": "species or system human", "conditions": "for IgM reactivities compared to T17: individual subjects (FIGS. 5A-B); for IgM binding compared to G17: individual subjects (FIG. 4)", "experimental": "as §1, §2, §3, §4"}, "[3]": {"system": "poly-G autoantibody", "test": "Poly-G autoantibody levels in kidney transplanted patients at baseline and 24 weeks after transplantation and immunosuppression (antigen microarray)", "assay_type": "in vivo, human", "design": "reduction in G14 IgM autoantibody intensity / reduction in G14 IgG autoantibody intensity / reduction in G40 IgM autoantibody intensity: concentration or dose not given beside the values"}, "[4]": {"conditions": "both studies combined: 60 SLE, 26 SSc, 18 PV patients, 31 healthy subjects"}, "[5]": {"conditions": "healthy subjects, SSc and PV patients (FIG. 1)"}, "[6]": {"conditions": "median intensity, 24 weeks after Tx vs baseline"}}, "data": [{"substance": "A20: 20-mer adenine homo-nucleotide (AAAAAAAAAAAAAAAAAAAA; listed as DNA, chemistry not fully specified)", "values": [{"measurement": "IgG reactivities", "setting": "[1]; [4]", "value": "relatively low reactivities"}, {"measurement": "IgG reactivities", "setting": "[1]; [5]", "value": "very low or no reactivities"}]}, {"substance": "T16G1: poly-T chain with a single G at the 3′ end (DNA TTTTTTTTTTTTTTTTG; listed as DNA, chemistry not fully specified)", "values": [{"measurement": "IgG reactivities compared to T17", "setting": "[1]", "value": "increased in almost all the subjects"}, {"measurement": "IgM reactivities compared to T17", "setting": "[2]", "value": "increased in almost all the subjects"}]}, {"substance": "T20: 20-mer thymine homo-nucleotide (DNA TTTTTTTTTTTTTTTTTTTT)", "values": [{"measurement": "IgG reactivities", "setting": "[1]; [4]", "value": "relatively low reactivities"}, {"measurement": "IgG reactivities", "setting": "[1]; [5]", "value": "very low or no reactivities"}]}, {"substance": "G1T16: poly-T chain with a single G at the 5′ end (DNA GTTTTTTTTTTTTTTTT; listed as DNA, chemistry not fully specified)", "values": [{"measurement": "IgG reactivities compared to T17", "setting": "[1]", "value": "increased in almost all the subjects"}, {"measurement": "IgM reactivities compared to T17", "setting": "[2]", "value": "increased in almost all the subjects"}]}, {"substance": "CGCGCGCGCGCGCGCGCGCG (listed as DNA, chemistry not given here) [(CG)10]", "values": [{"measurement": "IgG reactivities", "setting": "[1]; group of SLE patients, mainly positive for anti-dsDNA (FIG. 6)", "value": "high IgG reactivities"}, {"measurement": "IgM reactivities", "setting": "[2]; healthy subjects, SSc and SLE patients (FIG. 6)", "value": "high in all but one of the healthy subjects, in all of the SSc patients and in most of the SLE patients"}]}, {"substance": "T16G2: modified T17 oligonucleotide (DNA TTTTTTTTTTTTTTTTGG; listed as DNA, chemistry not fully specified)", "values": [{"measurement": "IgG reactivities compared to T17", "setting": "[1]", "value": "also increased compared to T17"}, {"measurement": "IgM reactivities compared to T17", "setting": "[2]", "value": "also increased compared to T17"}]}, {"substance": "G16T1: G16 with a single T added at the 3′ end (GGGGGGGGGGGGGGGGT; listed as DNA, chemistry not fully specified)", "values": [{"measurement": "IgG binding compared to G17", "setting": "[1]", "value": "considerably less than the binding to G17"}, {"measurement": "IgM binding compared to G17", "setting": "[2]", "value": "considerably less than the binding to G17"}]}, {"substance": "G17: poly-guanine oligonucleotide antigen, 17 guanines (GGGGGGGGGGGGGGGGG; listed as DNA, chemistry not fully specified)", "values": [{"measurement": "mean IgG reactivities as a function of chain length", "setting": "[1]; healthy, SSc, SLE dsDNA-negative and -positive groups (FIG. 3)", "value": "fell significantly"}]}, {"substance": "G2T16: modified T17 oligonucleotide (DNA GGTTTTTTTTTTTTTTTT; listed as DNA, chemistry not fully specified)", "values": [{"measurement": "IgG reactivities compared to T17", "setting": "[1]", "value": "also increased compared to T17"}, {"measurement": "IgM reactivities compared to T17", "setting": "[2]", "value": "also increased compared to T17"}]}, {"substance": "TGGGGGGGGGGGGGGGG (listed as DNA, chemistry not given here) [T1G16]", "values": [{"measurement": "IgG binding compared to G17", "setting": "[1]", "value": "essentially equal to the binding to the G17"}, {"measurement": "IgM binding compared to G17", "setting": "[2]", "value": "essentially equal to the binding to the G17"}]}, {"substance": "belatacept", "values": [{"measurement": "patients in whom the reduction in poly-G autoantibody intensity was observed", "setting": "[3]; 6 months post immunosuppression administration, 6 patients per group", "value": "observed in all belatacept patients"}, {"measurement": "reduction in autoantibodies median intensity, combined poly-G reactivity", "setting": "[3]; FIGS. 12A-B, 24 weeks after Tx vs baseline, belatacept vs CsA", "value": "greater reduction"}, {"measurement": "Antibody level 24 weeks after transplantation and drug administration compared to baseline (%, median intensity): IgG levels against G14 (SEQ ID NO: 41)", "setting": "[3]; kidney transplanted patients, serum, 24 weeks after Tx vs baseline, IgG, G14", "value": 53, "unit": "%"}, {"measurement": "Antibody level 24 weeks after transplantation and drug administration compared to baseline (%, median intensity): IgG levels against G17 (SEQ ID NO: 36)", "setting": "[3]; kidney transplanted patients, serum, 24 weeks after Tx vs baseline, IgG, G17", "value": 70, "unit": "%"}, {"measurement": "Antibody level 24 weeks after transplantation and drug administration compared to baseline (%, median intensity): IgG levels against G20 (SEQ ID NO: 43)", "setting": "[3]; kidney transplanted patients, serum, 24 weeks after Tx vs baseline, IgG, G20", "value": 58, "unit": "%"}, {"measurement": "Antibody level 24 weeks after transplantation and drug administration compared to baseline (%, median intensity): IgG levels against G30 (SEQ ID NO: 65)", "setting": "[3]; kidney transplanted patients, serum, 24 weeks after Tx vs baseline, IgG, G30", "value": 67, "unit": "%"}, {"measurement": "Antibody level 24 weeks after transplantation and drug administration compared to baseline (%, median intensity): IgG levels against G40 (SEQ ID NO: 66)", "setting": "[3]; kidney transplanted patients, serum, 24 weeks after Tx vs baseline, IgG, G40", "value": 81, "unit": "%"}, {"measurement": "Antibody level 24 weeks after transplantation and drug administration compared to baseline (%, median intensity): IgM levels against G14 (SEQ ID NO: 41)", "setting": "[3]; kidney transplanted patients, serum, 24 weeks after Tx vs baseline, IgM, G14", "value": 45, "unit": "%"}, {"measurement": "Antibody level 24 weeks after transplantation and drug administration compared to baseline (%, median intensity): IgM levels against G17 (SEQ ID NO: 36)", "setting": "[3]; kidney transplanted patients, serum, 24 weeks after Tx vs baseline, IgM, G17", "value": 63, "unit": "%"}, {"measurement": "Antibody level 24 weeks after transplantation and drug administration compared to baseline (%, median intensity): IgM levels against G20 (SEQ ID NO: 43)", "setting": "[3]; kidney transplanted patients, serum, 24 weeks after Tx vs baseline, IgM, G20", "value": 63, "unit": "%"}, {"measurement": "Antibody level 24 weeks after transplantation and drug administration compared to baseline (%, median intensity): IgM levels against G30 (SEQ ID NO: 65)", "setting": "[3]; kidney transplanted patients, serum, 24 weeks after Tx vs baseline, IgM, G30", "value": 59, "unit": "%"}, {"measurement": "Antibody level 24 weeks after transplantation and drug administration compared to baseline (%, median intensity): IgM levels against G40 (SEQ ID NO: 66)", "setting": "[3]; kidney transplanted patients, serum, 24 weeks after Tx vs baseline, IgM, G40", "value": 72, "unit": "%"}, {"measurement": "reduction in G14 IgG autoantibody intensity", "setting": "[3]; [6]", "value": 47, "unit": "%"}, {"measurement": "reduction in G14 IgM autoantibody intensity", "setting": "[3]; [6]", "value": 55, "unit": "%"}, {"measurement": "reduction in G17 IgG autoantibody intensity", "setting": "[3]; [6]", "value": 30, "unit": "%"}, {"measurement": "reduction in G17 IgM autoantibody intensity (FIG. 8A)", "setting": "[3]; [6]", "value": 37, "unit": "%"}, {"measurement": "reduction in G20 IgG autoantibody intensity", "setting": "[3]; [6]", "value": 42, "unit": "%"}, {"measurement": "reduction in G20 IgM autoantibody intensity", "setting": "[3]; [6]", "value": 37, "unit": "%"}, {"measurement": "reduction in G30 IgG autoantibody intensity", "setting": "[3]; [6]", "value": 33, "unit": "%"}, {"measurement": "reduction in G30 IgM autoantibody intensity", "setting": "[3]; [6]", "value": 41, "unit": "%"}, {"measurement": "reduction in G40 IgG autoantibody intensity", "setting": "[3]; [6]", "value": 19, "unit": "%"}, {"measurement": "reduction in G40 IgM autoantibody intensity", "setting": "[3]; [6]", "value": 28, "unit": "%"}]}]}
